Holding throughout (format): cell-based
In assay [1] the target is T1, P2X purinoceptor 1 (Homo sapiens, UniProt P51575).
T1 sequence (P51575 whole entry): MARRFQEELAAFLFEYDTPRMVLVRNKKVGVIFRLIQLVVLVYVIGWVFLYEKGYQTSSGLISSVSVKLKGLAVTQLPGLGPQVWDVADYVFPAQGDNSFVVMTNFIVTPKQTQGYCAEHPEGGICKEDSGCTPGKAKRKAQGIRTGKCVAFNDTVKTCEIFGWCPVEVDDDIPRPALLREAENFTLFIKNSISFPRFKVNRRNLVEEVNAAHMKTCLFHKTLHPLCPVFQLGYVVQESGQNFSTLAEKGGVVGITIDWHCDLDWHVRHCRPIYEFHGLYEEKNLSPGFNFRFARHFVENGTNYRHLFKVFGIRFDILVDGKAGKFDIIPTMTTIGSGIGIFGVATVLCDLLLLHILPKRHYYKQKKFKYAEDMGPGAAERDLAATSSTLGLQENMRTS
Description: […] activity at human P2X1R expressing CHO cells assessed as reduction in intracellular Ca2+ influx pretreated with Fluo-4 for 1 hr followed by compound addition and further incubated for 30 mins in presence of ATP by multimode plate reader analysis.

Assay [2] deals with T2, P2X purinoceptor 2 (Homo sapiens, UniProt Q9UBL9).
T2 sequence (Q9UBL9 whole entry): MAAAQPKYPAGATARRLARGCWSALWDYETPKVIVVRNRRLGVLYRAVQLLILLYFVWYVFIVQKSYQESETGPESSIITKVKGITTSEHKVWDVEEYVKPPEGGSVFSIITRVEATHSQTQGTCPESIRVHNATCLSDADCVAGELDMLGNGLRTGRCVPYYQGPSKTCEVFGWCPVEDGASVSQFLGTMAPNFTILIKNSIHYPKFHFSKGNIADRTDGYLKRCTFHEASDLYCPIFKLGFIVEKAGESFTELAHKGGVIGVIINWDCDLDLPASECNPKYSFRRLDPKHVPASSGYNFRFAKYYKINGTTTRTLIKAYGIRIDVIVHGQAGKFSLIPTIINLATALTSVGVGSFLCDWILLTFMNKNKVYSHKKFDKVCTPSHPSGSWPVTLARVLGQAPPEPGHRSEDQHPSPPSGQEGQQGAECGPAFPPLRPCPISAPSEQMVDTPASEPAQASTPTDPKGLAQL
Description: […] activity at human P2X2R expressing CHO cells assessed as reduction in intracellular Ca2+ influx pretreated with Fluo-4 for 1 hr followed by compound addition and further incubated for 30 mins in presence of ATP by multimode plate reader analysis.

Assay [3] has as its target T3, P2X purinoceptor 3 (Homo sapiens, UniProt P56373).
T3 sequence (P56373 whole entry): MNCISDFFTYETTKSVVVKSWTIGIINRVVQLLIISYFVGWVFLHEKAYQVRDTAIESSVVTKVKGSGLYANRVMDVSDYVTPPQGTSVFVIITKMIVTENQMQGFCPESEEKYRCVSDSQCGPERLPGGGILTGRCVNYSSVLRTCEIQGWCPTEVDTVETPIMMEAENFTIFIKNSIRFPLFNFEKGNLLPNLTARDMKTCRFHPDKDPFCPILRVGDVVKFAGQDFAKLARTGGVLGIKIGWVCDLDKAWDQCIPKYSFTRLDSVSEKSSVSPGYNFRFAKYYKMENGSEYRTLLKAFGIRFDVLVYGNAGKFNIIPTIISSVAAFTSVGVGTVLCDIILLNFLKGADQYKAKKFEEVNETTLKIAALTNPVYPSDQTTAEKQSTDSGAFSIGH
Description: […] activity at human P2X3R expressing CHO cells assessed as reduction in intracellular Ca2+ influx pretreated with Fluo-4 for 1 hr followed by compound addition and further incubated for 30 mins in presence of ATP by multimode plate reader analysis.

Assay [4] addresses T4, P2X2/P2X3 heterotrimeric receptor (Homo sapiens, UniProt P56373+Q9UBL9).
T4 sequence (Q9UBL9 whole entry): T2 sequence (Q9UBL9 whole entry)
T4 sequence (P56373 whole entry): T3 sequence (P56373 whole entry)
Description: […] activity at human P2X2R/P2X3R expressing CHO cells assessed as reduction in intracellular Ca2+ influx pretreated with Fluo-4 for 1 hr followed by compound addition and further incubated for 30 mins in presence of ATP by multimode plate reader analysis.

Assay [5] concerns the target T5, P2X purinoceptor 4 (Homo sapiens, UniProt Q99571).
T5 sequence (Q99571 whole entry): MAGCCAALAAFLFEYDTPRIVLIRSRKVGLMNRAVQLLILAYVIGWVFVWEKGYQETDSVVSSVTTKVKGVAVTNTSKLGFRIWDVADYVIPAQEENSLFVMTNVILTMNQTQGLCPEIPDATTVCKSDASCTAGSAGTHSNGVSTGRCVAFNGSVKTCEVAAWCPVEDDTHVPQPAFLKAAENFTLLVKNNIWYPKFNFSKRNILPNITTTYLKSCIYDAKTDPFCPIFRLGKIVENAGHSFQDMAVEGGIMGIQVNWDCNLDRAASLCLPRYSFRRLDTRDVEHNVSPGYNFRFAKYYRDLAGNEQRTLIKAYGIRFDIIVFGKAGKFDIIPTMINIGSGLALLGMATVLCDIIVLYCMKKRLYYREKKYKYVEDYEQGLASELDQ
Put plainly: […] activity at human P2X4R expressing HEK293 cells assessed as reduction in intracellular Ca2+ influx pretreated with Fluo-4 for 1 hr followed by compound addition and further incubated for 30 mins in presence of ATP by multimode plate reader analysis.

Assay [6] concerns the target T6, P2X purinoceptor 7 (Homo sapiens, UniProt Q99572).
T6 sequence (Q99572 whole entry): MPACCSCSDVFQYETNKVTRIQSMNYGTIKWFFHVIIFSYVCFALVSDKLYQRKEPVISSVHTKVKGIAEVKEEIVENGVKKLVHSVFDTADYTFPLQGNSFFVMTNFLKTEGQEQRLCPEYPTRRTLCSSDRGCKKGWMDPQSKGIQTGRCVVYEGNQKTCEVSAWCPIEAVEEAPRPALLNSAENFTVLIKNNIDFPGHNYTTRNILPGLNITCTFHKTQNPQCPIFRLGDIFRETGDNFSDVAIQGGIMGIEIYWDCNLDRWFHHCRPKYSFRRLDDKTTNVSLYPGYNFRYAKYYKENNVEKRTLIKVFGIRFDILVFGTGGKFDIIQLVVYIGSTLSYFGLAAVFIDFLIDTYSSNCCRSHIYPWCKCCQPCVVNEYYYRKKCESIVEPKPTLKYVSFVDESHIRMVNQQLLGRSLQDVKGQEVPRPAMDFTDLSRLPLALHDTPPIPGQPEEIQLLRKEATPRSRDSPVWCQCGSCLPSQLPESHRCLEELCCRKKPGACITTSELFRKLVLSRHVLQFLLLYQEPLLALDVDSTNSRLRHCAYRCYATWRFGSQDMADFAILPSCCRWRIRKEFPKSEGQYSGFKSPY
Description: […] activity at human P2X7R expressing HEK293 cells assessed as reduction in intracellular Ca2+ influx pretreated with Fluo-4 for 1 hr followed by compound addition and further incubated for 30 mins in presence of ATP by multimode plate reader analysis.

For assay [7], the target named is T6, P2X purinoceptor 7. Description: […] activity at human P2X7R expressed in HEK293 cells assessed as reduction in YO-PRO-1 iodide dye uptake preincubated for 30 mins followed by YO-PRO-1 iodide addition and measured after 2 hrs by fluorescence based multimode plate reader analysis.

pIC50: −log10 of the molar value.

As usually defined, the pIC50 is the negative decadic logarithm of the IC50, by convention in mol/L.

Regarding `O=P(O)(O)OP(=O)(O)OP(=O)(O)OC[C@H]1O[C@@H](n2cnc3c(Cl)ncnc32)[C@H](O)[C@@H]1O`, the pIC50 in assay [1] was 8.45; in assay [2], 7.06; in assay [3] it was 6.13; in assay [4] it was 6.89; in assay [5] it was less than 4.00; in assay [6], less than 4.00. For the same molecule, in assay [7], the pIC50 was less than 4.00.
Consider `CNc1ncnc2c1ncn2[C@@H]1O[C@H](COP(=O)(O)OP(=O)(O)OP(=O)(O)O)[C@@H](O)[C@H]1O`, for which the pIC50 was less than 4.00 in assay [1]; less than 4.00 in assay [2]; 5.89 in assay [3]; 6.58 in assay [4]; less than 4.00 in assay [5]; less than 4.00 in assay [6]. For the same molecule, in assay [7], the pIC50 was less than 4.00.
For `CO[C@@H]1[C@H](O)[C@@H](COP(=O)(O)OP(=O)(O)OP(=O)(O)O)O[C@H]1n1cnc2c(N)ncnc21`, the pIC50 in assay [1], in assay [2], in assay [3], in assay [4], in assay [5] and in assay [6] was less than 4.00 each time. Further, in assay [7], the pIC50 is less than 4.00.
As for `Nc1ncnc2c1ncn2[C@@H]1O[C@H](COP(=O)(O)OP(=O)(O)OP(=O)(O)O)[C@@H](O)[C@@H]1O`, the pIC50 in assay [1] is less than 4.00; in assay [2], less than 4.00; in assay [3], less than 4.00; in assay [4], less than 4.00; in assay [5], 4.98; in assay [6], less than 4.00. Moreover, in assay [7], the pIC50 is less than 4.00.
For the molecule `[N-]=[N+]=Nc1nc2c(N)ncnc2n1[C@@H]1O[C@H](COP(=O)(O)OP(=O)(O)OP(=O)(O)O)[C@@H](O)[C@H]1O`, the pIC50 in assay [1], in assay [2], in assay [3], in assay [4], in assay [5] and in assay [6] was less than 4.00 in each case. Further, the pIC50 in assay [7] was less than 4.00.
Consider `Nc1ncnc2c1ncn2[C@@H]1O[C@H](COP(=O)(O)OP(=O)(O)OP(=O)(O)O)[C@@H](O)[C@H]1F`, for which the pIC50 in assay [1] was less than 4.00; in assay [2], 5.25; in assay [3], 4.98; in assay [4] it was 5.27; in assay [5], 5.56; in assay [6], less than 4.00. In assay [7], the pIC50 is less than 4.00.
On to `Nc1ncnc2c1ncn2[C@@H]1O[C@H](COP(=O)(O)OP(=O)(O)OP(=O)(O)O)[C@@H](O)[C@H]1N`, for which the pIC50 in assay [1] is 5.19; in assay [2] it was less than 4.00; in assay [3] it was 5.37; in assay [4] it was 6.44; in assay [5], less than 4.00; in assay [6], less than 4.00. Further, the pIC50 in assay [7] is less than 4.00.
`O=P(O)(O)OP(=O)(O)OP(=O)(O)OC[C@H]1O[C@@H](n2cnc3c(S)ncnc32)[C@H](O)[C@@H]1O`: the negative logarithm of the IC50 (pIC50) in assay [1] was 5.82; in assay [2], less than 4.00; in assay [3], 5.82; in assay [4], 8.08; in assay [5], less than 4.00; in assay [6], less than 4.00. Also, the pIC50 in assay [7] is less than 4.00.
Regarding `O=P(O)(O)OP(=O)(O)OP(=O)(O)OC[C@H]1O[C@@H](n2cnc3c(NCc4ccccc4)ncnc32)[C@H](O)[C@@H]1O`, the pIC50 in assay [1] is less than 4.00; in assay [2] it was 5.40; in assay [3], less than 4.00; in assay [4], 5.57; in assay [5], less than 4.00; in assay [6] it was less than 4.00. In addition, the pIC50 in assay [7] was less than 4.00.
Regarding `O=c1[nH]c2cncnc2n1[C@@H]1O[C@H](COP(=O)(O)OP(=O)(O)OP(=O)(O)O)[C@@H](O)[C@H]1O`, the pIC50 was less than 4.00 in assay [1]; less than 4.00 in assay [2]; 4.96 in assay [3]; less than 4.00 in assay [4]; less than 4.00 in assay [5]; less than 4.00 in assay [6]. Moreover, in assay [7], the pIC50 was less than 4.00.
For `CCCCNc1ncnc2c1ncn2[C@@H]1O[C@H](COP(=O)(O)OP(=O)(O)OP(=O)(O)O)[C@@H](O)[C@H]1O`, the pIC50 in assay [1] was less than 4.00; in assay [2] it was less than 4.00; in assay [3], 4.52; in assay [4], 6.16; in assay [5], less than 4.00; in assay [6], less than 4.00. For the same molecule, the pIC50 in assay [7] is less than 4.00.
As to `O=P(O)(O)OP(=O)(O)OP(=O)(O)OC[C@H]1O[C@@H](n2cnc3c2ncn2ccnc32)[C@H](O)[C@@H]1O`, the pIC50 in assay [1] was less than 4.00; in assay [2] it was 6.38; in assay [3], 6.00; in assay [4] it was 6.55; in assay [5] it was less than 4.00; in assay [6] it was less than 4.00. The pIC50 in assay [7] was less than 4.00.
In the case of `O=P(O)(O)OP(=O)(O)OP(=O)(O)OC[C@H]1O[C@@H](n2cnc3c(Nc4ccccc4)ncnc32)[C@H](O)[C@@H]1O`, the pIC50 was less than 4.00 in assay [1]; 8.43 in assay [2]; 6.68 in assay [3]; 6.80 in assay [4]; 6.05 in assay [5]; less than 4.00 in assay [6]. The pIC50 in assay [7] is less than 4.00.

The record behind these values is ChEMBL document CHEMBL5120960, “Unveiling the Structure-Activity Relationships at the Orthosteric Binding Site of P2X Ion Channels: The Route to Selectivity” (J Med Chem, 2022).
